# Where “and” joins values, the source holds several entries; their conditions need not be identical. Equal values may be shown once.
# Assays:
# INR [1] = test: Fit of dose-response equation (4)/(5) for Vitamin K intake to INR of anti-coagulated patients (published data); type: in vivo
# Source text: More specifically, the reciprocal of INR will be dose-responsive to Vitamin K in the normal manner, as discussed above, so that Logit (1/INR) will be linear in log (K), where K is the effective total intake of Vitamin K in μg/day. Data on the total intake of Vitamin K are very rarely available in the clinic, but it is practicable to investigate departures from the usual amount when occasion arises, such as when a supplement of Vitamin K is prescribed. Therefore log (K) is expressed as the sum of two terms: log (K)=log (K0)+log (K/K0), where K0 is the average daily intake of Vitamin K.
# The dose-response curve described here includes the effect of exogenous Vitamin K by considering the parameter a in equation (1) to be the sum of two terms, a=a′+c log (K0), where a′ is another constant and c is a patient-specific parameter, and by adding a term for the effect of departures from K0. Thus, it follows that Log (INR−1)=bw−a−c log (K/K0) (4) […]
# The parameters of this dose-response curve for Vitamin K are derived primarily from published data based on use of synthetic Vitamin K tablets. In such published studies, the average daily intake of Vitamin K was measured in the diet of the subjects at 55 μg. […] The dose was increased each Monday before INR was measured; thus, the INR for Tuesday was one day after increase, etc.
# INR [2] = system: INR
# Source text: To simplify, a=y log (PCAo)−x, which expresses the fixed contribution of the patient's own clotting factor system; this will result in equation (1) Log (INR−1)=bw−a (1)
# Consequently, the patient-specific parameters are now a and b. […] In the absence of further information, a is assumed to be a constant characteristic of the patient, but as will be shown below, also includes the effects of the intake of Vitamin K on the patient's INR, whose effects can be represented by adding another term (see below). It should be pointed out that Equation (1) is a proposition, not a definition, because it specifies what value of the INR will be observed, given values for a, b and w. Furthermore, it should be appreciated that the value predicted for a particular patient thus depends only on w regardless of when in the treatment sequence it occurred. […] These two parameters relating INR to effective dose w can be seen as the scale factor for the dose a and the steepness of the dose response b.
# In the present invention, an empirical approximation is used to predict the time course of the patient's response to a change in a dose. […] In the case of a patient taking the same dose for an extended time, the “effective dose” equals that regular dose after the stabilization time. The “effective dose” only needs to be calculated when there is a change in dosage and during the stabilization period.
# The “effective dose” is calculated by convolving the actual dose with a function of time since the dose was taken. This function represents the effect of a single dose on the INR through time. […] It is assumed that the weighting for a dose taken just once is a triangular function with a slope of k from the time the dose is taken to the time of its maximum effect on INR, followed by a tailing off with a slope of −k. The resulting function for a maintained daily dose is an S-shaped growth function, consisting of two quarter-parabolae, depicted in FIG. 5. […] Here, the half-maximal delay is one unit of time at which the dose has half its maximum effect. When the patient stops taking the drug, the decay is reversed.
# The “optimum” dose is the dose expected to yield an INR at the mid-point of the therapeutic range. The effective doses were calculated using a half-maximal delay of 6.4, 6.4 and 9.0 days respectively.
# The parameter tmax½ used for this convolution is the time to attain the half-maximal effect for a maintained dose, which is also the time to attain the maximum effect of a single dose.
# [3] = patients studied, all taking warfarin, w = daily dosage in milligrams, natural log
molecule,measurement,setting,value
CC1=C(C/C=C(\C)CCC[C@H](C)CCC[C@H](C)CCCC(C)C)C(=O)c2ccccc2C1=O [Vitamin K1],half-time to stabilization,INR [1]; effect on INR of effective total daily intake,about 1.6 days
CC(=O)CC(c1ccccc1)c1c(O)c2ccccc2oc1=O (centres unmarked) [warfarin],time until the INR has stabilized on a constant dose,INR [2]; constant dose,13 days and 14 days
same,"mean value of a in equation (1), Log (INR-1)=bw-a",INR [2]; [3],about 2.8
same,"mean value of b in equation (1) (sensitivity, slope of the dose-response curve)",INR [2]; [3],about 0.54
Vitamin K,average value of patient-specific parameter c in equation (5),"INR [1]; derived from the literature data, K in μg/day, natural log",0.43
